Converted amounts (≈) assume the structure as drawn.

The results in this text go back to ChEMBL document CHEMBL4196086, “Recent advances of imidazole-containing derivatives as anti-tubercular agents” (Eur J Med Chem, 2018).

The subject of test [1] is Mycobacterium tuberculosis. Briefly: Antimycobacterial activity against Mycobacterium tuberculosis H37Rv. The following applies: Mycobacterium tuberculosis, H37Rv. It is filed as functional.
In test [2] the test system is Mycobacterium tuberculosis. The test can be described thus: Antimycobacterial activity against non-replicating Mycobacterium tuberculosis. The test is classed as functional.
The subject of test [3] is Mycobacterium tuberculosis. The test can be described thus: Growth inhibition of Mycobacterium tuberculosis H37Rv at 100 ug/ml relative to control. Particulars: read-out: GI. The test is classed as functional.
A short description of test [4]: Inhibition of Mycobacterium tuberculosis IMPDH.

In turn, `CC1(C)CCc2c(c3ccccc3c3nc(-c4c[nH]c5ccccc45)[nH]c23)O1` yielded an MIC in test [1] of 1.56 to 6.25 µg/mL (≈ 4.25 to 17 µM).

In test [1], `COc1ccc(-c2cn(Cc3ccc(Cl)cc3Cl)cc2C(c2ccccc2)n2ccnc2)cc1` (configuration not stated) yielded an MIC of 1 µg/mL (≈ 2.05 µM).

Regarding `Clc1ccc(Cn2cc(-c3ccccc3)c(C(c3ccccc3)n3ccnc3)c2)c(Cl)c1` (configuration not stated), in test [1], the MIC fell in the range of 1 to 16 µg/mL (≈ 2.18 to 34.9 µM).

In the case of `CCc1nc2ccc(C)cc2n1CCCCOc1ccccc1`, in test [2], the minimum inhibitory concentration (MIC) is 0.056 to 2.6 µM (≈ 0.0173 to 0.802 µg/mL).

On to `CCc1nc2ccc(C)cc2n1CCCCNc1ccccc1`, for which, in test [2], the MIC is 0.056 to 2.6 µM (≈ 0.0172 to 0.799 µg/mL).

Turning to `CCc1nc2ccc(C)cc2n1CCCCNc1ccc(OCc2ccccc2)cc1`, the minimal inhibitory concentration (MIC) in test [2] was 0.056 to 2.6 µM (≈ 0.0232 to 1.08 µg/mL).

Take `COc1ccc2c(c1)cc(-c1nc(-c3ccccc3)c(-c3ccccc3)n1-c1ccc(C)cc1)c1nnnn12`: the inhibition of growth at 100 µg/mL in test [3] lay in the range of 17 to 99%.

In the case of `COc1ccc(-n2c(-c3cc4cc(Cl)ccc4n4nnnc34)nc(-c3ccccc3)c2-c2ccccc2)cc1`, the inhibition of growth at 100 µg/mL in test [3] lay within 17 to 99%.

Regarding `Clc1ccc2c(c1)cc(-c1nc(-c3ccccc3)c(-c3ccccc3)n1-c1ccccc1)c1nnnn12`, in test [3], the inhibition of growth at 100 µg/mL fell in the range of 17 to 99%.

With `Cc1ccc(Oc2cc3[nH]c(Cn4ccnc4)nc3cc2F)cc1`, the minimal inhibitory concentration (MIC) in test [1] was in the range of 12.5 to 100 µg/mL (≈ 38.8 to 310 µM).

As for `c1ccc(-c2nc(-c3cc4ccccc4n4nnnc34)n(-c3ccccc3)c2-c2ccccc2)cc1`, the inhibition of growth at 100 µg/mL in test [3] is 17 to 99%.

`Cc1ccc(-n2c(-c3cc4cc(Cl)ccc4n4nnnc34)nc(-c3ccccc3)c2-c2ccccc2)cc1` gave an MIC99 in test [1] of 25 µg/mL (≈ 48.7 µM). Besides, in test [3], the inhibition of growth at 100 µg/mL lay in the range of 17 to 99%.

As for `Cc1ccc(-n2c(-c3cc4ccccc4n4nnnc34)nc(-c3ccccc3)c2-c2ccccc2)cc1`, in test [3], the inhibition of growth at 100 µg/mL is 17 to 99%.

In turn, `CCc1nc2ccc(C)cc2n1CCCCNc1ccc(OC)cc1` gave an MIC in test [2] of 0.056 to 2.6 µM (≈ 0.0189 to 0.877 µg/mL).

The molecule `CCc1nc2ccc(C)cc2n1CCCCSc1ccc(Cl)cc1` showed a minimal inhibitory concentration (MIC) in test [2] of 0.056 to 2.6 µM (≈ 0.0201 to 0.933 µg/mL).

`CCc1nc2ccc(C)cc2n1CCCCNc1cccc(C(F)(F)F)c1`: the MIC in test [2] is 0.056 to 2.6 µM (≈ 0.021 to 0.976 µg/mL).

`Fc1ccc(-c2cn(Cc3ccc(Cl)cc3Cl)cc2C(c2ccccc2)n2ccnc2)cc1` (configuration not stated) returned an MIC in test [1] of 1 µg/mL (≈ 2.1 µM).

As for `COc1ccc(-n2c(-c3cc4cc(OC)ccc4n4nnnc34)nc(-c3ccccc3)c2-c2ccccc2)cc1`, in test [3], the inhibition of growth at 100 µg/mL was in the range of 17 to 99%.

In turn, `Fc1cc2nc(Cn3ccnc3)[nH]c2cc1Oc1ccccc1` registered an MIC in test [1] of 12.5 to 100 µg/mL (≈ 40.5 to 324 µM).

For `Fc1cc2nc(Cn3ccnc3)[nH]c2cc1-n1ccnc1`, the minimal inhibitory concentration (MIC) in test [1] lay in the range of 12.5 to 100 µg/mL (≈ 44.3 to 354 µM).

As for `Cc1ccc2c(c1)cc(-c1nc(-c3ccccc3)c(-c3ccccc3)n1-c1ccccc1)c1nnnn12`, the inhibition of growth at 100 µg/mL in test [3] was in the range of 17 to 99%.

For the molecule `COc1ccc(-n2c(-c3cc4ccccc4n4nnnc34)nc(-c3ccccc3)c2-c2ccccc2)cc1`, the inhibition of growth at 100 µg/mL in test [3] is 17 to 99%.

For `CCc1nc2ccc(C)cc2n1CCCNc1ccc(C)cc1`, the MIC in test [2] is 0.056 to 0.88 µM (≈ 0.0172 to 0.271 µg/mL).

With `Cc1ccc(-n2c(-c3cc4cc(C)ccc4n4nnnc34)nc(-c3ccccc3)c2-c2ccccc2)cc1`, in test [3], the inhibition of growth at 100 µg/mL lay within 17 to 99%.

On to `CCc1nc2ccc(C)cc2n1CCCNc1ccc(C)cc1C`, for which the MIC in test [2] was 0.056 to 0.88 µM (≈ 0.018 to 0.283 µg/mL).

The molecule `CCc1nc2ccc(C)cc2n1CCCNc1ccc(OC)cc1` had an MIC in test [2] of 0.056 to 0.88 µM (≈ 0.0181 to 0.285 µg/mL).

For the molecule `COc1ccc(-n2c(-c3cc4cc(C)ccc4n4nnnc34)nc(-c3ccccc3)c2-c2ccccc2)cc1`, the inhibition of growth at 100 µg/mL in test [3] lay in the range of 17 to 99%.

`Fc1cc2nc(Cn3ccnc3)[nH]c2cc1Oc1ccc(Cl)cc1`: in test [1], the minimum inhibitory concentration (MIC) fell in the range of 12.5 to 100 µg/mL (≈ 36.5 to 292 µM).

As to `CCc1nc2ccc(C)cc2n1CCCNc1ccccc1`, the MIC in test [2] amounted to 0.056 µM (≈ 0.0164 µg/mL).

Take `CCc1nc2ccc(C)cc2n1CCCSc1ccc(OC)cc1`: the minimal inhibitory concentration (MIC) in test [2] was in the range of 0.056 to 0.88 µM (≈ 0.0191 to 0.3 µg/mL).

As for `CCc1nc2ccc(C)cc2n1CCCCSc1ccccc1`, in test [2], the MIC was 0.056 to 2.6 µM (≈ 0.0182 to 0.844 µg/mL).

In the case of `COc1ccc2c(c1)cc(-c1nc(-c3ccccc3)c(-c3ccccc3)n1-c1ccccc1)c1nnnn12`, the inhibition of growth at 100 µg/mL in test [3] was 17 to 99%.

Molecule `CCc1nc2ccc(C)cc2n1CCCCNc1cccc(Cl)c1` gave an MIC in test [2] of 0.056 to 2.6 µM (≈ 0.0191 to 0.889 µg/mL).

On to `O=C(Cn1c(-c2cscn2)nc2ccccc21)Nc1ccccc1`, for which, in test [4], the IC50 lay in the range of 3 to 10 µM.

The molecule `CCc1nc2ccc(C)cc2n1CCCCSc1ccc(OC)cc1` registered an MIC in test [2] of 0.056 to 2.6 µM (≈ 0.0199 to 0.922 µg/mL).

For `Fc1cc2nc(Cn3ccnc3)[nH]c2cc1Cl`, the MIC in test [1] fell in the range of 12.5 to 100 µg/mL (≈ 49.9 to 399 µM).

As usually defined, the MIC is the least concentration at which growth counts as inhibited. Read a high MIC as a less susceptible organism. As usually defined, the MIC99 is an inhibitory concentration at the 99% level, which refers to growth in some studies and to a panel of isolates in others. Usually IC50 stands for the midpoint of a concentration-inhibition curve. Low values mean higher potency, high ones lower potency.
